The values that follow are results of earlier work, collected in paper PMC10643470, “Knockout or inhibition of USP30 protects dopaminergic neurons in a Parkinson’s disease mouse model” (Nature Communications, 2023).

One series concerns USP30. The following applies: cited from earlier work.
For series [1], the system named is SHSY5Y neuroblastoma cells. On the set-up: method as in PMID 32636217. The following applies: SHSY5Y neuroblastoma cells ref 42; cited from earlier work.
Series [2] has as its system SHSY5Y neuroblastoma cells. On the set-up: method as in PMID 32636217. The conditions noted are these: SHSY5Y neuroblastoma cells ref 42; cited from earlier work. The source holds these as a separate data set.

In the case of `CC(C)(C)NS(=O)(=O)c1cccc2c(NC(=O)[C@H](Cc3ccccc3)NC(=O)C3CCCCC3)cccc12` [MF-094], the “USP30 inhibition in biochemical assays” value in the series on USP30 is reported as “identified as USP30 inhibitors”.
For the compound `CC(C)(C)NS(=O)(=O)c1cccc2c(NC(=O)[C@H](Cc3ccccc3)NC(=O)C3CC3)cccc12` [MF-095], in the series with USP30, the “USP30 inhibition in biochemical assays” value is “identified as USP30 inhibitors”.
For `N#CN1CC[C@@H](NC(=O)c2cc(-c3ccccc3Oc3ccccc3)n[nH]2)C1` [FT3967385], in series [1], the Mitophagy levels entry was “significantly increases”. The “Ubiquitylation of TOM20” value in series [2] is reported as “significantly increases”.
